According to PubChem BioAssay AID2060912 (Molecular Pharmacology Branch, DTP, NCI, 2025):
pIC50: −log10 of the molar value.

System: HUVEC/MSC spheroids viability
Assay: Human HUVEC/MSC cell line growth inhibition [KRAS2];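 for viability, T/C: percent of DMSO vehicle control luminescence so 100% = untreated viability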
Conditions: for pIC50: curve of first compound; for viability, T/C: stronger effect = lower value; active = viability on the fitted dose curve at most 10% of control; inactive = the rest
Procedure, shortened: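 HUVEC + hMSC stromal spheroids only, no malignant cells; 37 °C, 5% CO2. Drugs singly and in pairs, half-log series down from clinical Cmax (max 10 microM if Cmax undetermined).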

Cn1nccc1Nc1nccc(-c2cc3c(s2)C(C)(C)N(CCN2CCOCC2)C3=O)n1 + CC1OCC2(CCN(c3cnc(Sc4ccnc(N)c4Cl)c(N)n3)CC2)C1N
inactive: viability, T/C (second compound 0.0316 µM, first compound 0.0316 µM) 105% | viability, T/C (second compound 0.0316 µM, first compound 0.1 µM) 127% | viability, T/C (second compound 0.0316 µM, first compound 0.316 µM) 108% | viability, T/C (second compound 0.0316 µM, first compound 1 µM) 78% | viability, T/C (second compound 0.0316 µM, first compound 3.16 µM) 34.5% | viability, T/C (second compound 0.1 µM, first compound 0.0316 µM) 117% | viability, T/C (second compound 0.1 µM, first compound 0.1 µM) 127% | viability, T/C (second compound 0.1 µM, first compound 0.316 µM) 124% | viability, T/C (second compound 0.1 µM, first compound 1 µM) 96.3% | viability, T/C (second compound 0.1 µM, first compound 3.16 µM) 43.8% | viability, T/C (second compound 0.316 µM, first compound 0.0316 µM) 112% | viability, T/C (second compound 0.316 µM, first compound 0.1 µM) 120% | viability, T/C (second compound 0.316 µM, first compound 0.316 µM) 105% | viability, T/C (second compound 0.316 µM, first compound 1 µM) 78.8% | viability, T/C (second compound 0.316 µM, first compound 3.16 µM) 44.2% | viability, T/C (second compound 1 µM, first compound 0.0316 µM) 95.9% | viability, T/C (second compound 1 µM, first compound 0.1 µM) 97.6% | viability, T/C (second compound 1 µM, first compound 0.316 µM) 107% | viability, T/C (second compound 1 µM, first compound 1 µM) 60.7% | viability, T/C (second compound 1 µM, first compound 3.16 µM) 34.6% | viability, T/C (second compound 3.16 µM, first compound 0.0316 µM) 79.7% | viability, T/C (second compound 3.16 µM, first compound 0.1 µM) 90.2% | viability, T/C (second compound 3.16 µM, first compound 0.316 µM) 80.3% | viability, T/C (second compound 3.16 µM, first compound 1 µM) 57.7% | viability, T/C (second compound 3.16 µM, first compound 3.16 µM) 25.5% | viability, T/C (second compound 10 µM, first compound 0.0316 µM) 73% | viability, T/C (second compound 10 µM, first compound 0.1 µM) 67.4% | viability, T/C (second compound 10 µM, first compound 0.316 µM) 56.1% | viability, T/C (second compound 10 µM, first compound 1 µM) 34.2% | viability, T/C (second compound 10 µM, first compound 3.16 µM) 21.5%
6.37: pIC50 (second compound 10 µM)
5.56: pIC50 (second compound 0.1 µM)
5.87: pIC50 (second compound 3.16 µM)
active: viability, T/C (second compound 0.0316 µM, first compound 10 µM) 7.19% | viability, T/C (second compound 0.1 µM, first compound 10 µM) 6.82% | viability, T/C (second compound 0.316 µM, first compound 10 µM) 5.45% | viability, T/C (second compound 1 µM, first compound 10 µM) 4.73% | viability, T/C (second compound 3.16 µM, first compound 10 µM) 8.64% | viability, T/C (second compound 10 µM, first compound 10 µM) 4.23%
5.68: pIC50 (second compound 0.0316 µM)
5.60: pIC50 (second compound 0.316 µM)
5.76: pIC50 (second compound 1 µM)

CC(=O)OC12COC1CC(O)C1(C)C(=O)C(O)C3=C(C)C(OC(=O)C(O)C(NC(=O)OC(C)(C)C)c4ccccc4)CC(O)(C(OC(=O)c4ccccc4)C21)C3(C)C (centres undefined) + CNCc1ccccc1-c1csc(C(C)Nc2nc(C)nc3cc(OC)c(OC)cc23)c1
< 5.52: pIC50 (second compound 1 µM) | pIC50 (second compound 3.16 µM)
7.40: pIC50 (second compound 0.316 µM)
inactive: viability, T/C (second compound 0.0316 µM, first compound 0.00949 µM) 40.6% | viability, T/C (second compound 0.0316 µM, first compound 0.03 µM) 40.6% | viability, T/C (second compound 0.0316 µM, first compound 0.0949 µM) 49.7% | viability, T/C (second compound 0.0316 µM, first compound 0.3 µM) 53% | viability, T/C (second compound 0.0316 µM, first compound 0.949 µM) 49.1% | viability, T/C (second compound 0.0316 µM, first compound 3 µM) 54.2% | viability, T/C (second compound 0.1 µM, first compound 0.00949 µM) 44.2% | viability, T/C (second compound 0.1 µM, first compound 0.03 µM) 43.3% | viability, T/C (second compound 0.1 µM, first compound 0.0949 µM) 51.8% | viability, T/C (second compound 0.1 µM, first compound 0.3 µM) 45.1% | viability, T/C (second compound 0.1 µM, first compound 0.949 µM) 42.9% | viability, T/C (second compound 0.1 µM, first compound 3 µM) 50% | viability, T/C (second compound 0.316 µM, first compound 0.00949 µM) 44.8% | viability, T/C (second compound 0.316 µM, first compound 0.03 µM) 56.5% | viability, T/C (second compound 0.316 µM, first compound 0.0949 µM) 54.6% | viability, T/C (second compound 0.316 µM, first compound 0.3 µM) 43.3% | viability, T/C (second compound 0.316 µM, first compound 0.949 µM) 48.8% | viability, T/C (second compound 0.316 µM, first compound 3 µM) 49% | viability, T/C (second compound 1 µM, first compound 0.00949 µM) 47.3% | viability, T/C (second compound 1 µM, first compound 0.03 µM) 62.2% | viability, T/C (second compound 1 µM, first compound 0.0949 µM) 68.9% | viability, T/C (second compound 1 µM, first compound 0.3 µM) 54.3% | viability, T/C (second compound 1 µM, first compound 0.949 µM) 55.4% | viability, T/C (second compound 1 µM, first compound 3 µM) 61.9% | viability, T/C (second compound 3.16 µM, first compound 0.00949 µM) 78.1% | viability, T/C (second compound 3.16 µM, first compound 0.03 µM) 73.5% | viability, T/C (second compound 3.16 µM, first compound 0.0949 µM) 73.8% | viability, T/C (second compound 3.16 µM, first compound 0.3 µM) 77.6% | viability, T/C (second compound 3.16 µM, first compound 0.949 µM) 76.8% | viability, T/C (second compound 3.16 µM, first compound 3 µM) 56.7%
active: viability, T/C (second compound 10 µM, first compound 0.00949 µM) 0.32% | viability, T/C (second compound 10 µM, first compound 0.03 µM) 0.36% | viability, T/C (second compound 10 µM, first compound 0.0949 µM) 0.39% | viability, T/C (second compound 10 µM, first compound 0.3 µM) 0.34% | viability, T/C (second compound 10 µM, first compound 0.949 µM) 0.34% | viability, T/C (second compound 10 µM, first compound 3 µM) 1.75%
> 8.02: pIC50 (second compound 0.0316 µM) | pIC50 (second compound 0.1 µM) | pIC50 (second compound 10 µM)
